Source: ChEMBL document CHEMBL4602617, “Discovery and optimization of heteroaryl piperazines as potent and selective PI3Kδ inhibitors” (Bioorg Med Chem Lett, 2020)

Experiments:
[1] = molecular target: RAF proto-oncogene serine/threonine-protein kinase (Homo sapiens, UniProt P04049, Y340D/Y341D); assay: Inhibition of recombinant human GST-tagged RAF1 Y340D Y341D mutant catalytic domain expressed in baculovirus expression system using serine/threonine-3 peptide as substrate incubated for 60 mins in presence of ATP by Z'-LYTE assay
Chain of RAF proto-oncogene serine/threonine-protein kinase (P04049 whole entry Y340D/Y341D, the tested form may be a part): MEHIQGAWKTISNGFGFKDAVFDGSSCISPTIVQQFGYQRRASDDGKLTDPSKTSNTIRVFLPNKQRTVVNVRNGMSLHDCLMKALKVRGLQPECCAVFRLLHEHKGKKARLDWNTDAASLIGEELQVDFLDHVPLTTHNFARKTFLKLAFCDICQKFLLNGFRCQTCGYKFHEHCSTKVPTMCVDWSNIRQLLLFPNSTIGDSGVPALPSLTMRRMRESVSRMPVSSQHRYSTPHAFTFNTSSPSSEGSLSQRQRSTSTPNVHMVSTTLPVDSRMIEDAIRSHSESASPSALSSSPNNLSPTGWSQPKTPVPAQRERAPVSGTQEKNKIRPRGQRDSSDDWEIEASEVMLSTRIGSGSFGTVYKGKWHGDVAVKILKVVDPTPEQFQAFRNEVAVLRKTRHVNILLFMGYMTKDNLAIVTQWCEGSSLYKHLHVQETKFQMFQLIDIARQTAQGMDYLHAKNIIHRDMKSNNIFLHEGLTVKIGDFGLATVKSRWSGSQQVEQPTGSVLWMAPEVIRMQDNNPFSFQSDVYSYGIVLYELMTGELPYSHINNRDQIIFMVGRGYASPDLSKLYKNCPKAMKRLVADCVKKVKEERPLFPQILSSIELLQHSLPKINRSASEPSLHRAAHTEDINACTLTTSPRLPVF

[2] = molecular target: Melanocyte-stimulating hormone receptor (Homo sapiens) (UniProt Q01726); assay: Displacement of [125I]NDP-alpha-MSH from full length human recombinant MC1 receptor expressed in CHO-K1 cells at 10 uM measured after 120 mins by radiometric scintillation analysis relative to control; format: cell-based
Chain of Melanocyte-stimulating hormone receptor (Homo sapiens) (Q01726 whole entry, looked up, the tested form may be a part): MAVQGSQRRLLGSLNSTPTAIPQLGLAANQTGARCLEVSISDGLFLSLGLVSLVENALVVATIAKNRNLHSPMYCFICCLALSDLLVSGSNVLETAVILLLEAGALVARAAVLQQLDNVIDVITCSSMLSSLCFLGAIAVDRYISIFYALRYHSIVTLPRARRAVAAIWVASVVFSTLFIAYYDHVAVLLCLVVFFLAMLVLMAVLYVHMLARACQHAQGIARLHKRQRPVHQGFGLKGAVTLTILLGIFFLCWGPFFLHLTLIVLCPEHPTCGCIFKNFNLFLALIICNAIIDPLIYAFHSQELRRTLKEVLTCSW

[3] = molecular target: Rho-associated protein kinase 1 (Homo sapiens, UniProt Q13464); assay: Inhibition of recombinant human GST-tagged ROCK1 catalytic domain expressed in baculovirus expression system using serine/threonine-7 peptide as substrate incubated for 60 mins in presence of ATP by Z'-LYTE assay
[4] = Clearance in human liver microsomes; format: ADME, Microsome; details: read-out: CLH
[5] = molecular target: Serine/threonine-protein kinase B-raf (Homo sapiens, UniProt P15056); assay: Inhibition of recombinant full length human GST-tagged BRAF expressed in baculovirus expression system using tyrosine-1 peptide as substrate incubated for 60 mins in presence of ATP by Z'-LYTE assay
Chain of Serine/threonine-protein kinase B-raf (P15056 whole entry, the tested form may be a part): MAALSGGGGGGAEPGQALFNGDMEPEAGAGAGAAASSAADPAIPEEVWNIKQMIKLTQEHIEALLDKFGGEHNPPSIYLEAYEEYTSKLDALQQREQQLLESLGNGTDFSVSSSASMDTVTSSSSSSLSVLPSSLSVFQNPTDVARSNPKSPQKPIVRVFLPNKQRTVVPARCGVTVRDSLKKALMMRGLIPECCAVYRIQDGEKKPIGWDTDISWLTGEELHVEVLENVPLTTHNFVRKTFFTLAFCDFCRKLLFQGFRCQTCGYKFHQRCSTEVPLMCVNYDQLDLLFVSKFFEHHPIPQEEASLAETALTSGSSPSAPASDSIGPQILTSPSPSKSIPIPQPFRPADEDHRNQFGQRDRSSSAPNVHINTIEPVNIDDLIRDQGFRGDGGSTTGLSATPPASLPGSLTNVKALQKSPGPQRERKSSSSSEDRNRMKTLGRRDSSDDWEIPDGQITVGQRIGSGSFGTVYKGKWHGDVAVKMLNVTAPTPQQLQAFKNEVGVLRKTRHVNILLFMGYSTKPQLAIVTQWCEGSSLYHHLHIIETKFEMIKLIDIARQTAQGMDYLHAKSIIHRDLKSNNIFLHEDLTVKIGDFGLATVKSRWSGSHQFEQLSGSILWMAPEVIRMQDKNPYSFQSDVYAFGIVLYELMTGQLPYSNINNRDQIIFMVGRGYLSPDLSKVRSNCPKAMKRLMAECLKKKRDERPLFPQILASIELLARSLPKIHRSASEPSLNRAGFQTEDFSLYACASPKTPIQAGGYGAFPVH

[6] = molecular target: Epidermal growth factor receptor (Homo sapiens, UniProt P00533, T790M); assay: Inhibition of human recombinant GST-tagged EGFR T790M mutant cytoplasmic domain expressed in baculovirus expression system using tyrosine 4 peptide as substrate after 60 mins in presence of ATP FRET based Z'-LYTE assay
SRSF protein kinase 1 = SRSF protein kinase 1 (Homo sapiens, UniProt Q96SB4); assay: Inhibition of recombinant full length human His-tagged SRPK1 expressed in baculovirus expression system using serine/threonine-18 peptide as substrate incubated for 60 mins in presence of ATP by Z'-LYTE assay
[7] = molecular target: Tyrosine-protein kinase JAK2 (Homo sapiens, UniProt O60674, V617F); assay: Inhibition of human recombinant GST tagged JAK2 V617F mutant catalytic domain expressed in baculovirus expression system using Tyr6 peptide as substrate measured after 1 hr in presence of ATP by Z'-LYTE assay
[8] = molecular target: GABA-A receptor; anion channel (Rattus norvegicus) (UniProt O09028+P15431+P18506+P18508+P19969+P20236+P23574+P23576+P28471+P28473+P30191+P62813+P63079+P63138+Q91ZM7+Q9ES14); assay: Displacement of [3H]-Ro15-1788 from GABA(A) receptor in Wistar rat hippocampus at 10 uM incubated for 120 mins by radiometric scintillation analysis relative to control; format: tissue-based
[9] = molecular target: Androgen receptor (Homo sapiens) (UniProt P10275); assay: Displacement of [3H]methyltrienolone from human LNCAP cells derived androgen receptor at 10 uM measured after 20 hrs by scintillation counting method relative to control; format: cell-based
[10] = molecular target: Substance-K receptor (Homo sapiens) (UniProt P21452); assay: Inhibition of human NK2 receptor at 10 uM relative to control
[11] = molecular target: PI3-kinase p110-delta/p85-alpha (Homo sapiens, UniProt O00329); assay: Inhibition of His-tagged recombinant human PI3K p110delta/p85alpha expressed in baculovirus expression system using PIP2:PS lipid as substrate in presence of ATP after 1 hr by Adapta assay
[12] = molecular target: Sodium channel protein type 5 subunit alpha (Homo sapiens, UniProt Q14524); assay: Inhibition of Nav1.5 (unknown origin)
[13] = molecular target: Interleukin-1 receptor-associated kinase 4 (Homo sapiens, UniProt Q9NWZ3); assay: Inhibition of recombinant full length human His-tagged IRAK4 expressed in baculovirus expression system using serine/threonine-7 peptide as substrate incubated for 60 mins in presence of ATP by Z'-LYTE assay
Chain of Interleukin-1 receptor-associated kinase 4 (Q9NWZ3 whole entry, the tested form may be a part): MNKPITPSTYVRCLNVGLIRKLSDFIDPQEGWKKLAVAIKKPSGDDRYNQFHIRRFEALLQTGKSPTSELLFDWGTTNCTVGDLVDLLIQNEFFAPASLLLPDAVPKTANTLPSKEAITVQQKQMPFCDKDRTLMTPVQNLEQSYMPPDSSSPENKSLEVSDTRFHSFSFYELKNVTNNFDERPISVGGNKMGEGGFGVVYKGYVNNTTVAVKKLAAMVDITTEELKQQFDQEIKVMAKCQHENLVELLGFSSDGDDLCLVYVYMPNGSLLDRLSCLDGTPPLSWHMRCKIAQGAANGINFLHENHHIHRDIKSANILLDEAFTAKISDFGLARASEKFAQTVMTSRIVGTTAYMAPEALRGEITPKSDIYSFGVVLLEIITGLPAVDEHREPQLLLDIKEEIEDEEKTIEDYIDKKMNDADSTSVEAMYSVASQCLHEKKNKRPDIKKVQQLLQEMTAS

[14] = molecular target: Epidermal growth factor receptor (Homo sapiens, UniProt P00533); assay: Inhibition of human EGFR (668 to 1210 residues) expressed in insect cells at 10 uM using Poly(Glu:Tyr) as substrate after 30 mins by radiometric scintillation analysis relative to control
Chain of Epidermal growth factor receptor (Homo sapiens, UniProt P00533) (P00533 whole entry, the tested form may be a part): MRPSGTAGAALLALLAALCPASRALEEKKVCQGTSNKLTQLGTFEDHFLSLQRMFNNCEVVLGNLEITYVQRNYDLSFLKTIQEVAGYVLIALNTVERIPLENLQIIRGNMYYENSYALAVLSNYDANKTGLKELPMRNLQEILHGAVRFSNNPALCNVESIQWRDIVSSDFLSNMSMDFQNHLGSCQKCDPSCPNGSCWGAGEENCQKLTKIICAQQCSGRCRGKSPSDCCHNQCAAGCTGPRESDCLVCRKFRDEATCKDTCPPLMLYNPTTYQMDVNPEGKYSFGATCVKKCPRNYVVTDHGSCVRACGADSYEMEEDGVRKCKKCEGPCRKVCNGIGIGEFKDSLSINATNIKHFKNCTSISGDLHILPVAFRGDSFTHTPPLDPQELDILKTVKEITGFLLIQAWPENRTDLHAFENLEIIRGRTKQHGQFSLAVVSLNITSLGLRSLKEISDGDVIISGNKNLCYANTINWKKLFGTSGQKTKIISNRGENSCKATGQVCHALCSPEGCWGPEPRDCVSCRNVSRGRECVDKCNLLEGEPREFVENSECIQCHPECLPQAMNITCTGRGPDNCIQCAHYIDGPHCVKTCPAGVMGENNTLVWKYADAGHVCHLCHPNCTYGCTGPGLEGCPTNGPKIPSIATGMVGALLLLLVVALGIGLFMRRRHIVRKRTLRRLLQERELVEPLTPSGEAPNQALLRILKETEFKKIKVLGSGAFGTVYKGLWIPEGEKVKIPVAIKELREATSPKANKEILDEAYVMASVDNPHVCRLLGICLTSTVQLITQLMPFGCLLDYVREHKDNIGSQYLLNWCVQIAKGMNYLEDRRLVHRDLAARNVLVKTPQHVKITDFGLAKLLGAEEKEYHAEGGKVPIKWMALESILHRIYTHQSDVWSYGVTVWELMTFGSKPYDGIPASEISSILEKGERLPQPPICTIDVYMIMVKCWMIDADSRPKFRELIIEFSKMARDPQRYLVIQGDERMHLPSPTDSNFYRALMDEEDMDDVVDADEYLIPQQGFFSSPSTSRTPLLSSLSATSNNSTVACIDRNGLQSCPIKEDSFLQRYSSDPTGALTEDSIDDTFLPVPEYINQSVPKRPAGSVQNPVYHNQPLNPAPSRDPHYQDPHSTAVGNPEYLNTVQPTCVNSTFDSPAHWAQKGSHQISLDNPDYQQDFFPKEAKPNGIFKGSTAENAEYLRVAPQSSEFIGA

[15] = molecular target: Serine/threonine-protein kinase D1 (Homo sapiens, UniProt Q15139); assay: Inhibition of recombinant full length human GST-tagged PKCmu expressed in baculovirus expression system using serine/threonine-17 peptide as substrate incubated for 60 mins in presence of ATP by Z'-LYTE assay
[16] = molecular target: Mitogen-activated protein kinase 1 (Homo sapiens, UniProt P28482); assay: Inhibition of recombinant full length human GST-tagged ERK2 expressed in Escherichia coli expression system using serine/threonine-3 peptide as substrate incubated for 60 mins in presence of ATP by Z'-LYTE assay
[17] = molecular target: Epidermal growth factor receptor (Homo sapiens, UniProt P00533, L861Q); assay: Inhibition of human recombinant GST-tagged EGFR L861Q mutant cytoplasmic domain expressed in baculovirus expression system using tyrosine 4 peptide as substrate after 60 mins in presence of ATP FRET based Z'-LYTE assay
[18] = molecular target: Vasoactive intestinal polypeptide receptor 1 (Homo sapiens) (UniProt P32241); assay: Displacement of [125I]VIP from human HT-29 cells derived VIP1 at 10 uM after 60 mins by radiometric scintillation analysis relative to control; format: cell-based
[19] = Clearance in rat liver microsomes; format: ADME, Microsome; details: read-out: CLH
[20] = molecular target: Dual specificity tyrosine-phosphorylation-regulated kinase 3 (Homo sapiens, UniProt O43781); assay: Inhibition of recombinant full length human GST-tagged DYRK3 expressed in baculovirus expression system using serine/threonine-9 peptide as substrate incubated for 60 mins in presence of ATP by Z'-LYTE assay
Chain of Dual specificity tyrosine-phosphorylation-regulated kinase 3 (O43781 whole entry, the tested form may be a part): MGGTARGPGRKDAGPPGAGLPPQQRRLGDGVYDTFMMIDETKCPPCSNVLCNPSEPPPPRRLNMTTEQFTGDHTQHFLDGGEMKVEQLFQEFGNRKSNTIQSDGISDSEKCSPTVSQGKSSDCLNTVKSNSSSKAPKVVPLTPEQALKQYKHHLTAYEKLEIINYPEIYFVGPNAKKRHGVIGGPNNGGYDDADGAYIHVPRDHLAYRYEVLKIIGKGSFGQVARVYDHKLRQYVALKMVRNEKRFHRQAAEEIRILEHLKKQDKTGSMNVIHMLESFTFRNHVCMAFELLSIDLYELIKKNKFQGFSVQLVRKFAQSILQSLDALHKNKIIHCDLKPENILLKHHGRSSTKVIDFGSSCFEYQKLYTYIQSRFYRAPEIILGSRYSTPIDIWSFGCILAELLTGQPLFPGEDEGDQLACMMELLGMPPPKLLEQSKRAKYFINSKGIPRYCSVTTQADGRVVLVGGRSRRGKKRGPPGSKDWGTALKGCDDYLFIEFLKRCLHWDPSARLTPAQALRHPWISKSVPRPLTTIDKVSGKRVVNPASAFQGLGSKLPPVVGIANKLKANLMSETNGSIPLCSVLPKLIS

[21] = molecular target: Serine/threonine-protein kinase PLK3 (Homo sapiens, UniProt Q9H4B4); assay: Inhibition of recombinant human GST-tagged PLK3 catalytic domain (58 to 340 residues) expressed in baculovirus expression system using serine/threonine-16 peptide as substrate incubated for 60 mins in presence of ATP by Z'-LYTE assay
[22] = molecular target: Protein kinase C epsilon type (Homo sapiens, UniProt Q02156); assay: Inhibition of recombinant full length human GST-tagged PRKCE expressed in insect expression system using serine/threonine-7 peptide as substrate incubated for 60 mins in presence of ATP by Z'-LYTE assay
Chain of Protein kinase C epsilon type (Q02156 whole entry): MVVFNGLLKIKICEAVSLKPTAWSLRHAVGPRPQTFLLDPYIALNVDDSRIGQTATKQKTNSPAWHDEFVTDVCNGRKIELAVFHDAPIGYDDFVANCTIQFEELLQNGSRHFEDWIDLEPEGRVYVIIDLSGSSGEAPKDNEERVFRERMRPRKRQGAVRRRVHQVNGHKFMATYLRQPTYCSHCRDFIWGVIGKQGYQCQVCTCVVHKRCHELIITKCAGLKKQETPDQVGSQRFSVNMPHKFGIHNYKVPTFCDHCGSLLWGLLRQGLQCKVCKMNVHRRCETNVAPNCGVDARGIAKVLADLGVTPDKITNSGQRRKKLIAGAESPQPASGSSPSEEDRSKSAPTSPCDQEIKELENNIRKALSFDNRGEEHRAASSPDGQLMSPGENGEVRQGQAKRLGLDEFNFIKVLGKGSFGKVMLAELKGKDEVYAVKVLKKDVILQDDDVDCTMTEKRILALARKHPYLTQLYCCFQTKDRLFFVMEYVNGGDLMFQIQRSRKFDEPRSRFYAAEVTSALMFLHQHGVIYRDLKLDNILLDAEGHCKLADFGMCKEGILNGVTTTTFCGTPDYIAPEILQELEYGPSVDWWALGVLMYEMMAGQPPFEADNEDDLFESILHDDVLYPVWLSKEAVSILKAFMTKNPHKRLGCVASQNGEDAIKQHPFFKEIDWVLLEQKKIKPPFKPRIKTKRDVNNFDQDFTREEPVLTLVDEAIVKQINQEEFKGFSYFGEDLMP

[23] = molecular target: Kappa-type opioid receptor (Homo sapiens) (UniProt P41145); assay: Displacement of [3H]diprenorphine from full length human recombinant KOP receptor expressed in HEK293 cells at 10 uM measured after 60 mins by radiometric scintillation analysis relative to control; format: cell-based
[24] = molecular target: Dual specificity protein kinase CLK2 (Homo sapiens, UniProt P49760); assay: Inhibition of recombinant human GST-tagged CLK2 catalytic domain (137 to 498 residues) expressed in baculovirus expression system using serine/threonine-6 peptide as substrate incubated for 60 mins in presence of ATP by Z'-LYTE assay
[25] = molecular target: 5-hydroxytryptamine receptor 2A (Homo sapiens) (UniProt P28223); assay: Displacement of [3H]ketanserin from full length human recombinant 5HT2A receptor expressed in CHOK-1 cells at 10 uM measured after 60 mins by radiometric scintillation analysis relative to control; format: cell-based

C[C@@H]1C[C@H]1C(=O)N1CCN(c2cnc(C#N)c(-c3cnn(C)c3)n2)C[C@H]1C
IC50 [1]: > 100 µM | inhibition [2]: 3% | IC50 [3]: > 100 µM | CLint scaled [4]: < 0.96 L/h/kg | IC50 [5]: > 100 µM | IC50 [6]: > 100 µM | IC50 (SRSF protein kinase 1): > 100 µM | IC50 [7]: > 100 µM | inhibition [8]: -3% | inhibition [9]: 17% | inhibition [10]: 1% | IC50 [11]: 0.884 µM | IC50 [12]: > 30 µM | IC50 [13]: > 100 µM | inhibition [14]: -9% | IC50 [15]: > 100 µM | IC50 [16]: > 100 µM | IC50 [17]: > 100 µM | inhibition [18]: 1% | CLint scaled [19]: 2.82 L/h/kg | IC50 [20]: > 100 µM | IC50 [21]: > 100 µM | IC50 [22]: > 100 µM | inhibition [23]: 5% | IC50 [24]: > 100 µM | inhibition [25]: 6%
